Tests used:
Assay type in all cases: cell-based, human
PBMC [1] = assay: IFN-γ ELISpot on PBMC of CD patients on day 6 after 3-day oats challenge; details: after 3-day oats challenge
Excerpt: (§1) Australian Caucasian HLA-DQ2.5^+ and/or HLA-DQ8^+ CD subjects were recruited by advertisement in the Coeliac Society of Victoria newsletter and all had biopsy-proven CD conforming to ESPGHAN criteria. Patients had been on strict gluten free diet for at least 4 weeks prior to commencing grain challenge. Patients underwent 3-day grain challenge with oats, barley, or combined wheat, barley, and rye muffins, and 6 days after commencement, blood was collected. Day 0 responses were not observed in the selection of patients tested, as described previously^8.
(§2) Oats challenge consisted of 100 g dry weight daily of one of three commercial brands of oats: one not tested for wheat contamination (Uncle Toby's; Oats #1), and two shown by R5 ELISA to contain less than 20 ppm wheat gluten (Tilquhilie Pudding; Oats #2 and Freedom Food; Oats #3). Barley challenge consisted of pearl barley (Ward McKenzie) cooked into a risotto (150 g dry weight daily) and the wheat challenge consisted of four 50 g slices of wheat bread daily (Baker's Delight white loaf cut to toasting thickness). The combined wheat, barley, and rye challenge consisted of muffins baked with wheat flour (White Wings), barley flour (Four Leaf Milling), and rye flour (Four Leaf Milling; 22-25 g dry weight each daily). A symptom diary based on a […] Likert scale was completed by participants daily from baseline until day 6.
(§3) Two avenin peptide libraries were utilized for epitope screening. These were designed using avenin sequences from GenBank and a customized algorithm, as previously described^9. The initial library consisted of 199 screening-grade 20 mers including all possible 12 mers (Mimotopes). This library was screened with and without tTG pre-treatment. The second library consisted of additional avenin sequences that were synthesized with glutamate substitution at sites predicted to be deamidated by published algorithms^10, 11 removing the requirement for tTG treatment. This library contained 369 screening-grade 20 mers, including all possible 12 mers (Pepscan). The second round avenin library contained wild-type and deamidated versions of the most immunogenic sequences (25 high quality 16 mers from Mimotopes). High quality peptides containing previously described immunogenic sequences from wheat, barley, and rye were used to test for cross-reactivity^8 (Pepscan). High quality hordein and avenin peptides for TCC testing and biochemical studies were ordered from Pepscan, Mimotopes, or GL Biochem.
(§4) Peripheral blood mononuclear cells (PBMC) were isolated from heparinized whole blood using Ficoll-Paque™ Plus density-gradient centrifugation (GE Healthcare). IFN-γ ELISpot (Mabtech) was set up as previously described^8.

Patient 2 TCC-01 = assay: IFN-γ ELISpot with T cell clone
Procedure: as §4
(§5) Isolation of TCC from CD patients was carried out as previously described^8. Briefly, CFSE-labeled PBMC were incubated with antigen for 7 days in IMDM supplemented with 5% heat-inactivated pooled human serum (PHS), 2 mM GlutaMAX™, 100 μM MEM non-essential amino acids (both from Gibco, Invitrogen), and 50 μM 2-mercaptoethanol (Sigma). Proliferated cells were single-cell sorted into 96-well plates containing IL-2, IL-4, anti-CD3 mAb, irradiated feeder cells (allogeneic PBMC and JY-EBV). TCC were expanded and maintained in IL-2 and IL-4 and tested for specificity by ELISpot with irradiated HLA-matched PBMC as antigen-presenting cells. Expanded clones were tested for HLA-DQ restriction, TCR Vbeta usage, and with lysine scans to work out minimal epitopes. See Table 1 below for TCC and epitope information.

Patient 2 TCC-02 = assay: IFN-γ ELISpot with T cell clone; details: for IFN-γ ELISpot response (SFU) / significant SFU as a percentage of maximal peptide SFU: TCC Patient 2 TCC-02, peptide 25 μg/mL
Procedure: as §4, §5

Patient 2 TCC-03 = assay: IFN-γ ELISpot with T cell clone; details: TCC Patient 2 TCC-03, peptide 25 μg/mL
Procedure: as §4, §5

Patient 6 TCC-01 = assay: IFN-γ ELISpot with T cell clone
Procedure: as §4, §5

Patient 8 TCC-01 = assay: IFN-γ ELISpot with T cell clone; details: TCC Patient 8 TCC-01, peptide 25 μg/mL
Procedure: as §4, §5

PBMC [2] = assay: IFN-γ ELISpot on PBMC of CD patients after 3-day barley challenge; details: after barley challenge
Excerpt: as §1, §2, §3, §4

Patient 14 TCC-01 = assay: IFN-γ ELISpot with T cell clone; details: TCC Patient 14 TCC-01 (Table 5); mean no antigen 11.3, high background, SFU >25 considered as positive responses
Procedure: as §4, §5

[3] = TCC Patient 2 TCC-01, peptide 25 μg/mL
[4] = TCC Patient 6 TCC-01, peptide 25 μg/mL

Sequence | IFN-γ ELISpot response (raw SFU) (PBMC [1]; patient P1, peptide 1 μg/ml) [SFU] | IFN-γ ELISpot response (raw SFU) (PBMC [1]; patient P1, peptide 10 μg/ml) [SFU] | significant SFU as a percentage of maximal peptide SFU (PBMC [1]; patient P1, peptide 10 μg/ml) | IFN-γ ELISpot response (raw SFU) (PBMC [1]; patient P1, peptide 100 μg/ml) [SFU] | IFN-γ ELISpot response (raw SFU) (PBMC [1]; patient P2, peptide 1 μg/ml) [SFU] | IFN-γ ELISpot response (raw SFU) (PBMC [1]; patient P2, peptide 10 μg/ml) [SFU] | significant SFU as a percentage of maximal peptide SFU (PBMC [1]; patient P2, peptide 10 μg/ml) | IFN-γ ELISpot response (raw SFU) (PBMC [1]; patient P2, peptide 100 μg/ml) [SFU] | significant SFU as a percentage of maximal peptide SFU (PBMC [1]; patient P2, peptide 100 μg/ml) | IFN-γ ELISpot response (raw SFU) (PBMC [1]; patient P3, peptide 1 μg/ml) [SFU] | significant SFU as a percentage of maximal peptide SFU (PBMC [1]; patient P3, peptide 1 μg/ml) | IFN-γ ELISpot response (raw SFU) (PBMC [1]; patient P3, peptide 10 μg/ml) [SFU] | significant SFU as a percentage of maximal peptide SFU (PBMC [1]; patient P3, peptide 10 μg/ml) | IFN-γ ELISpot response (raw SFU) (PBMC [1]; patient P3, peptide 100 μg/ml) [SFU] | IFN-γ ELISpot response (raw SFU) (PBMC [1]; patient P11, peptide 1 μg/ml) [SFU] | IFN-γ ELISpot response (raw SFU) (PBMC [1]; patient P11, peptide 10 μg/ml) [SFU] | IFN-γ ELISpot response (raw SFU) (PBMC [1]; patient P11, peptide 100 μg/ml) [SFU] | IFN-γ ELISpot response (raw SFU) (PBMC [1]; patient P12, peptide 1 μg/ml) [SFU] | IFN-γ ELISpot response (raw SFU) (PBMC [1]; patient P12, peptide 10 μg/ml) [SFU] | IFN-γ ELISpot response (raw SFU) (PBMC [1]; patient P12, peptide 100 μg/ml) [SFU] | other results
QYQPYPEQEEPFVQQQ | 8 | 15 | ** (**: 40-70%) | 5 | 7 | 12 | * (*: 20-40%) | 20 | * (*: 20-40%) | 20 | * (*: 20-40%) | 31 | ** (**: 40-70%) | 2 | 2 | 0 | 0 | 4 | 3 | 2 | IFN-γ ELISpot response (raw SFU) (PBMC [1]; patient P13, peptide 50 μg/ml): 9 SFU; IFN-γ ELISpot response (SFU) (Patient 2 TCC-01; [3]): 2 SFU; rank of TCC response among homologous peptides (Patient 2 TCC-02; Patient 2 TCC-02 (FIG. 2)): greatest response; IFN-γ ELISpot response (SFU) (Patient 2 TCC-02): 284 SFU; significant SFU as a percentage of maximal peptide SFU (Patient 2 TCC-02): *** (***: >70%); IFN-γ ELISpot response (SFU) (Patient 2 TCC-03): 0 SFU; IFN-γ ELISpot response (SFU) (Patient 6 TCC-01; [4]): 1 SFU; IFN-γ ELISpot response (SFU) (Patient 8 TCC-01): 0 SFU
SEQYQPYPEQEQPFV [DQ2.5-ave-1b] | – | – | – | – | – | – | – | – | – | – | – | – | – | – | – | – | – | – | – | – | IFN-γ ELISpot response (SFU) (Patient 2 TCC-01; [3]): 240 SFU; significant SFU as a percentage of maximal peptide SFU (Patient 2 TCC-01; [3]): *** (***: >70%); IFN-γ ELISpot response (SFU) (Patient 2 TCC-02): 102 SFU; significant SFU as a percentage of maximal peptide SFU (Patient 2 TCC-02): * (*: 20-40%); IFN-γ ELISpot response (SFU) (Patient 2 TCC-03): 1 SFU; IFN-γ ELISpot response (SFU) (Patient 6 TCC-01; [4]): 30 SFU; significant SFU as a percentage of maximal peptide SFU (Patient 6 TCC-01; [4]): * (*: 20-40%); IFN-γ ELISpot response (SFU) (Patient 8 TCC-01): 50 SFU; significant SFU as a percentage of maximal peptide SFU (Patient 8 TCC-01): * (*: 20-40%)
QYQPYPEQEQPILQQQ [partially deamidated avenin peptide containing DQ2.5-ave-1c] | 11 | 33 | *** (***: >70%) | 11 | 6 | 34 | ** (**: 40-70%) | 38 | *** (***: >70%) | 19 | * (*: 20-40%) | 26 | ** (**: 40-70%) | 18 | 3 | 41 | 50 | 1 | 39 | 31 | IFN-γ ELISpot response (raw SFU) (PBMC [2]; Patient 1, peptide 50 μg/ml): 58 SFU; significant SFU as a percentage of maximal peptide SFU (PBMC [2]; Patient 1, peptide 50 μg/ml): ^^ (^^: 10-20%); IFN-γ ELISpot response (raw SFU) (PBMC [2]; Patient 2, peptide 50 μg/ml): 220 SFU; significant SFU as a percentage of maximal peptide SFU (PBMC [2]; Patient 2, peptide 50 μg/ml): *** (***: >70%); IFN-γ ELISpot response (raw SFU) (PBMC [2]; Patient 3, peptide 50 μg/ml): 34 SFU; significant SFU as a percentage of maximal peptide SFU (PBMC [2]; Patient 3, peptide 50 μg/ml): * (*: 20-40%); significant SFU as a percentage of maximal peptide SFU (PBMC [1]; patient P1, peptide 1 μg/ml): * (*: 20-40%); significant SFU as a percentage of maximal peptide SFU (PBMC [1]; patient P1, peptide 100 μg/ml): * (*: 20-40%); significant SFU as a percentage of maximal peptide SFU (PBMC [1]; patient P3, peptide 100 μg/ml): * (*: 20-40%); significant SFU as a percentage of maximal peptide SFU (PBMC [1]; patient P11, peptide 10 μg/ml): *** (***: >70%); significant SFU as a percentage of maximal peptide SFU (PBMC [1]; patient P11, peptide 100 μg/ml): *** (***: >70%); significant SFU as a percentage of maximal peptide SFU (PBMC [1]; patient P12, peptide 10 μg/ml): ** (**: 40-70%); significant SFU as a percentage of maximal peptide SFU (PBMC [1]; patient P12, peptide 100 μg/ml): ** (**: 40-70%); IFN-γ ELISpot response (raw SFU) (PBMC [1]; patient P13, peptide 50 μg/ml): 4 SFU; IFN-γ ELISpot response (raw SFU) (Patient 14 TCC-01): 21 SFU; IFN-γ ELISpot response (raw SFU) (Patient 2 TCC-01; TCC Patient 2 TCC-01 (Table 5), mean no antigen 1.1): 288 SFU; IFN-γ ELISpot response (raw SFU) (Patient 6 TCC-01; TCC Patient 6 TCC-01 (Table 5), mean no antigen 2): 5 SFU

Source: patent US20160238590A1, “COMPOSITIONS AND METHODS RELATED TO OAT SENSITIVITY” (IMMUSANT, INC., priority 2013, published 2016)
